From paper PMC3488872 (Chemistry & biology, 2012)

Tested on: HeLa cells transfected with GR-GFP
Experiment: GR-GFP translocation assay for cytosolic access

effect of bafilomycin on TR (200 nM bafilomycin 1 h pretreatment, then 1 μM): did not alter
Compound: C[C@@H]1C[C@H]2[C@@H]3CCC4=CC(=O)C=C[C@]4(C)[C@@]3(F)[C@@H](O)C[C@]2(C)[C@@]1(O)C(=O)CO [Dex, dexamethasone]
effect of EIPA on TR (50 μM EIPA 30 min pretreatment, then 1 μM 30 min 37°C): Neither EIPA nor dynasore blocked the increase | effect of dynasore on TR (80 μM dynasore 30 min pretreatment, then 1 μM 30 min 37°C): Neither EIPA nor dynasore blocked the increase | reduction of the increase in TR by MβCD (5 mM MβCD, 1 μM 30 min): 53%
